From the NIST ThermoML archive (doi:10.1016/j.jct.2019.04.023)

Tests used:
[1] = 101 kPa, Liquid; for viscosity: Falling or rolling sphere viscometry; for mass density: Vibrating tube method
[2] = xn = mol fraction of the nth substance listed; settings: 101 kPa, Liquid, x2 = 0; for viscosity: Falling or rolling sphere viscometry; for mass density: Vibrating tube method

CC[N+](CC)=C(N(C)C)N(C)C.O=S(=O)([N-]S(=O)(=O)C(F)(F)F)C(F)(F)F
[1]
Settings	mass density [kg/m3]	viscosity [mPa·s]
293.15 K	1377.86	81.02
298.15 K	1373.16	65.01
303.15 K	1368.51	52.96
308.15 K	1363.9	43.84
313.15 K	1359.32	36.79
318.15 K	1354.76	31.25
323.15 K	1350.21	26.79

CCO [ethanol]
[1]
Settings	mass density [kg/m3]	viscosity [mPa·s]
293.15 K	789.53	1.177
298.15 K	785.25	1.074
303.15 K	780.93	0.977
308.15 K	776.58	0.888
313.15 K	772.19	0.819
318.15 K	767.75	0.753
323.15 K	763.27	0.697

CCO [ethanol] + CC[N+](CC)=C(N(C)C)N(C)C.O=S(=O)([N-]S(=O)(=O)C(F)(F)F)C(F)(F)F
[2]
Settings	mass density [kg/m3]	viscosity [mPa·s]
293.15 K	789.53	1.177
298.15 K	785.25	1.074
303.15 K	780.93	0.977
308.15 K	776.58	0.888
313.15 K	772.19	0.819
318.15 K	767.75	0.753
323.15 K	763.27	0.697

CO [methanol]
[1]
Settings	mass density [kg/m3]	viscosity [mPa·s]
293.15 K	791.3	0.584
298.15 K	786.6	0.552
303.15 K	781.87	0.524
308.15 K	777.12	0.49
313.15 K	772.34	0.459
318.15 K	767.52	0.439
323.15 K	762.67	0.417

CO [methanol] + CC[N+](CC)=C(N(C)C)N(C)C.O=S(=O)([N-]S(=O)(=O)C(F)(F)F)C(F)(F)F
[2]
Settings	mass density [kg/m3]	viscosity [mPa·s]
293.15 K	791.3	0.584
298.15 K	786.6	0.552
303.15 K	781.87	0.524
308.15 K	777.12	0.49
313.15 K	772.34	0.459
318.15 K	767.52	0.439
323.15 K	762.67	0.417
